Here are results for 16 compounds from US10138253B2, “Imidazopyridine macrocycles as inhibitors of human immunodeficiency virus replication” (priority 2015, dated 2018).

Where two headings read alike, the source gives them in different places. Some results are limits rather than exact numbers.

This test relates to NL-RLuc virus. The experiment in a line: Inhibition of HIV replication (NL-RLuc virus, luciferase readout, MT-2 cells). Format: cell-based. Conditions: Human immunodeficiency virus 1, MT2, 120 h. An excerpt:
Inhibition of HIV Replication:
A recombinant NL-RLuc proviral clone was constructed in which a section of the nef gene from NL4-3 was replaced with the Renilla Luciferase gene. This virus is fully infectious and can undergo multiple cycles of replication in cell culture. In addition, the luciferous reporter provides a simple and easy method for quantitating the extent of virus growth and consequently, the antiviral activity of test compounds. The plasmid pNLRLuc contains the proviral NL-Rluc DNA cloned into pUC18 at the PvuII site. The NL-RLuc virus was prepared by transfection of 293T cells with the plasmid pNLRLuc. Transfections were performed using the LipofectAMINE PLUS kit from Invitrogen (Carlsbad, Calif.) according to the manufacturer and the virus generated was titered in MT-2 cells. For susceptibility analyses, the titrated virus was used to infect MT-2 cells in the presence of compound, and after 5 days of incubation, cells were processed and quantitated for virus growth by the amount of expressed luciferase. Assay media was RPMI 1640 supplemented with 10% heat inactivated fetal bovine serum (FBS), 100 units/ml penicillin G/100 units/ml streptomycin, 10 mM HEPES buffer pH 7.55 and 2 mM L-glutamine. The results from at least 2 experiments were used to calculate the EC50 values. Luciferase was quantitated using the Dual Luciferase kit from Promega (Madison, Wis.). Susceptibility of viruses to compounds was determined by incubation in the presence of serial dilutions of the compound. The 50% effective concentration (EC50) was calculated by using the exponential form of the median effect equation where (Fa)=1/[1+(ED50/drug conc.)^m] (Johnson V A, Byington R T. Infectivity Assay. In Techniques in HIV Research. ed. Aldovini A, Walker B D. 71-76. New York: Stockton Press. 1990). Activity equal to A refers to a compound having an EC50≤100 nM, while B and C denote compounds having an EC50 between 100 nM and luM (B) or >1 uM (C).

`Cc1c([C@H](OC(C)(C)C)C(=O)O)c2n3c(Cl)c(nc3c1C)-c1cccc(c1)-c1cc(F)ccc1O[C@@H](C)COCCOC1(C)CCN2CC1` [Example 29, (2S)-2-(tert-butoxy)-2-((6S,E)-23-chloro-45-fluoro-14,27,28,6-tetramethyl-5,8,11-trioxa-2(5,2)-imidazo[1,2-a]pyridina-1(1,4)-piperidina-3(1,3),4(1,2)-dibenzenacycloundecaphane-26-yl)acetic Acid]: the EC50 reads like this: (read-out: Activity) less than 0.1 µM; (read-out: EC50 μM) 0.001 µM.
For `Cc1c([C@H](OC(C)(C)C)C(=O)O)c2n3cc(nc3c1CO)-c1cccc(c1)-c1cc(F)c(F)cc1O[C@@H](C)COCCOC1(C)CCN2CC1` [Example 6, (2S)-2-(tert-Butoxy)-2-[(22S)-17,18-difluoro-5-(hydroxymethyl)-4,22,28-trimethyl-21,24,27-trioxa-1,7,34-triazahexacyclo[26.2.2.1^6,^9.1^1^0,^1^4.0^2,^7.0^1^5,^2^0]tetratriaconta-2,4,6(34),8,10(33),11,13,15(20),16,18-decaen-3-yl]acetic Acid] the same measures were less than 0.1 µM and 0.002 µM.
Consider `Cc1c([C@H](OC(C)(C)C)C(=O)O)c2n3c(Cl)c(nc3c1Cn1cccn1)-c1cccc(c1)-c1cc(F)c(F)cc1O[C@@H](C)COCCOC1(C)CCN2CC1` [Example 10, (2S)-2-(tert-Butoxy)-2-[(22S)-8-chloro-17,18-difluoro-4,22,28-trimethyl-5-(1H-pyrazol-1-ylmethyl)-21,24,27-trioxa-1,7,34-triazahexacyclo[26.2.2.1^6,^9.1^1^0,^1^4.0^2,^7.0^1^5,^2^0]tetratriaconta-2,4,6(34),8,10(33),11,13,15(20),16,18-decaen-3-yl]acetic acid], for which the EC50 (read-out: Activity) was less than 0.1 µM and the EC50 (read-out: EC50 μM) was determined as 0.005 µM.
For the compound `Cc1cc(F)c2c(c1)O[C@@H](C)COCCOC1(C)CCN(CC1)c1c([C@H](OC(C)(C)C)C(=O)O)c(C)c(C)c3nc(cn13)-c1cccc-2c1` [Example 19, (2S)-2-(tert-Butoxy)-2-((6S,Z)-46-fluoro-14,27,28,44,6-pentamethyl-5,8,11-trioxa-2(5,2)-imidazo[1,2-a]pyridina-1(1,4)-piperidina-3(1,3),4(1,2)-dibenzenacycloundecaphane-26-yl)acetic Acid], where the note is “read-out: Activity”, the EC50 is less than 0.1 µM.
Regarding `Cc1c([C@H](OC(C)(C)C)C(=O)O)c2n3c(Cl)c(nc3c1Cn1ccnn1)-c1cccc(c1)-c1cc(F)c(F)cc1O[C@@H](C)COCCOC1(C)CCN2CC1` [Example 12, (2S)-2-(tert-Butoxy)-2-[(22S)-8-chloro-17,18-difluoro-4,22,28-trimethyl-5-(1H-1,2,3-triazol-1-ylmethyl)-21,24,27-trioxa-1,7,34-triazahexacyclo[26.2.2.1^6,^9.1^1^0,^1^4.0^2,^7.0^1^5,^2^0]tetratriaconta-2,4,6(34),8,10(33),11,13,15(20),16,18-decaen-3-yl]acetic Acid], the EC50 (read-out: Activity) was less than 0.1 µM and the EC50 (read-out: EC50 μM) was found to be 0.012 µM.
For `C=C(C)c1c(C)c([C@H](OC(C)(C)C)C(=O)O)c2n3cc(nc13)-c1cccc(c1)-c1cc(F)c(F)cc1O[C@@H](C)COCCOC1(C)CCN2CC1` [Example 14, (2S)-2-(tert-Butoxy)-2-[(22S)-17,18-difluoro-4,22,28-trimethyl-5-(prop-1-en-2-yl)-21,24,27-trioxa-1,7,34-triazahexacyclo[26.2.2.1^6,^9.1^1^0,^1^4.0^2,^7.0^1^5,^2^0]tetratriaconta-2,4,6(34),8,10(33),11,13,15(20),16,18-decaen-3-yl]acetic Acid], the EC50 (read-out: Activity) was less than 0.1 µM.
Turning to `Cc1cc(F)c2c(c1)O[C@@H](C)COCCOC1(C)CCN(CC1)c1c([C@H](OC(C)(C)C)C(=O)O)c(C)c(C)c3nc(c(Cl)n13)-c1cccc-2c1` [Example 21, (2S)-2-(tert-Butoxy)-2-((6S,E)-23-chloro-46-fluoro-14,27,28,44,6-pentamethyl-5,8,11-trioxa-2(5,2)-imidazo[1,2-a]pyridina-1(1,4)-piperidina-3(1,3),4(1,2)-dibenzenacycloundecaphane-26-yl)acetic acid], the EC50 runs as follows: (read-out: Activity) less than 0.1 µM; (read-out: EC50 μM) 0.002 µM.
In the case of `Cc1c([C@H](O)C(=O)O)c2n3cc(nc3c1C)-c1cccc(c1)-c1cc(F)c(F)cc1O[C@@H](C)COCCOC1(C)CCN2CC1` [Example 5, (2S)-2-[(22S)-17,18-Difluoro-4,5,22,28-tetramethyl-21,24,27-trioxa-1,7,34-triazahexacyclo[26.2.2.1^6,^9.1^1^0,^1^4.0^2,^7.0^1^5,^2^0]tetratriaconta-2,4,6(34),8,10(33),11,13,15(20),16,18-decaen-3-yl]-2-hydroxyacetic Acid], the EC50 reads like this: (read-out: Activity) 0.1 to 1 µM; (read-out: EC50 μM) 0.283 µM.
Turning to `Cc1ccc2c(c1)O[C@@H](C)COCCOC1(C)CCN(CC1)c1c([C@H](OC(C)(C)C)C(=O)O)c(C)c(C)c3nc(c(Cl)n13)-c1cccc-2c1` [Example 24, (2S)-2-(tert-Butoxy)-2-((6S,E)-23-chloro-14,27,28,44,6-pentamethyl-5,8,11-trioxa-2(5,2)-imidazo[1,2-a]pyridina-1(1,4)-piperidina-3(1,3),4(1,2)-dibenzenacycloundecaphane-26-yl)acetic Acid], the EC50 (read-out: Activity) was less than 0.1 µM.
Consider `Cc1c([C@H](OC(C)(C)C)C(=O)O)c2n3cc(nc3c1C(C)O)-c1cccc(c1)-c1cc(F)c(F)cc1O[C@@H](C)COCCOC1(C)CCN2CC1` (single isomer, unassigned) [Example 16], for which the EC50 (read-out: Activity) was less than 0.1 µM and the EC50 (read-out: EC50 μM) came out at 0.002 µM.
On to `Cc1cc2nc3c(Cl)n2c(c1[C@H](OC(C)(C)C)C(=O)O)N1CCC(C)(CC1)OCCOC[C@H](C)Oc1cc(F)c(F)cc1-c1cccc-3c1` [Example 7, (2S)-2-(tert-Butoxy)-2-[(22S)-8-chloro-17,18-difluoro-4,22,28-trimethyl-21,24,27-trioxa-1,7,34-triazahexacyclo[26.2.2.1^6,^9.1^1^0,^1^4.0^2,^7.0^1^5,^2^0]tetratriaconta-2,4,6(34),8,10(33),11,13,15(20),16,18-decaen-3-yl]acetic Acid], for which, under “read-out: Activity”, the EC50 was less than 0.1 µM.
For the compound `Cc1c([C@H](OC(C)(C)C)C(=O)O)c2n3c(Cl)c(nc3c1Cn1nccn1)-c1cccc(c1)-c1cc(F)c(F)cc1O[C@@H](C)COCCOC1(C)CCN2CC1` [Example 13, (2S)-2-(tert-butoxy)-2-[(22S)-8-chloro-17,18-difluoro-4,22,28-trimethyl-5-(2H-1,2,3-triazol-2-ylmethyl)-21,24,27-trioxa-1,7,34-triazahexacyclo[26.2.2.1^6,^9.1^1^0,^1^4.0^2,^7.0^1^5,^2^0]tetratriaconta-2,4,6(34),8,10(33),11,13,15(20),16,18-decaen-3-yl]acetic Acid], for the setting “read-out: Activity”, the EC50 is less than 0.1 µM.
`Cc1ccc2c(c1)O[C@@H](C)COCCOC1(C)CCN(CC1)c1c([C@H](OC(C)(C)C)C(=O)O)c(C)c(C)c3nc(cn13)-c1cccc-2c1` [Example 23, (2S)-2-(tert-Butoxy)-2-((6S,Z)-14,27,28,44,6-pentamethyl-5,8,11-trioxa-2(5,2)-imidazo[1,2-a]pyridina-1(1,4)-piperidina-3(1,3),4(1,2)-dibenzenacycloundecaphane-26-yl)acetic Acid]: for the setting “read-out: Activity”, the EC50 is less than 0.1 µM.
On the same count and under the same terms, the value for `Cc1ccc2c(c1)-c1cccc(c1)-c1cn3c(c([C@H](OC(C)(C)C)C(=O)O)c(C)c(C)c3n1)N1CCC(C)(CC1)OCCOC[C@H](C)O2` [Example 26, (2S)-2-(tert-Butoxy)-2-[(22S)-4,5,17,22,28-pentamethyl-21,24,27-trioxa-1,7,34-triazahexacyclo[26.2.2.1^6,^9.1^1^0,^1^4.0^2,^7.0^1^5,^2^0]tetratriaconta-2,4,6(34),8,10(33),11,13,15(20),16,18-decaen-3-yl]acetic Acid] was less than 0.1 µM.
Regarding `Cc1c([C@H](OC(C)(C)C)C(=O)O)c2n3c(C)c(nc3c1C)-c1cccc(c1)-c1cc(F)c(F)cc1O[C@@H](C)COCCOC1(C)CCN2CC1` [Example 15, (2S)-2-(tert-Butoxy)-2-[(22S)-17,18-difluoro-4,5,8,22,28-pentamethyl-21,24,27-trioxa-1,7,34-triazahexacyclo[26.2.2.1^6,^9.1^1^0,^1^4.0^2,^7.0^1^5,^2^0]tetratriaconta-2,4,6(34),8,10(33),11,13,15(20),16,18-decaen-3-yl]acetic Acid], the EC50 (read-out: Activity) is less than 0.1 µM.
In the case of `Cc1ccc2c(c1)O[C@@H](C)COCCOC1(C)CCN(CC1)c1c([C@H](OC(C)(C)C)C(=O)O)c(C)cc3nc(cn13)-c1cccc-2c1` [Example 22, (2S)-2-(tert-Butoxy)-2-[(22S)-4,18,22,28-tetramethyl-21,24,27-trioxa-1,7,34-triazahexacyclo[26.2.2.1^6,^9.1^1^0,^1^4.0^2,^7.0^1^5,^2^0]tetratriaconta-2,4,6(34),8,10(33),11,13,15(20),16,18-decaen-3-yl]acetic Acid], the EC50 (read-out: Activity) is less than 0.1 µM.
